Data reported in PMC4543428 (European journal of pharmacology, 2015).
Where a name gives a salt, the structure may show the parent alone. Read-outs that look alike come from different tables or passages of the source.

Legend:
[1] = target: T1, sigma2 receptor (Mus musculus, UniProt Q8VD00); assay: Sigma2 receptor competition binding against [3H]DTG /; details: for Sigma2 nH (pseudo-Hill slope): 3.0 nM [3H]DTG / 500 nM (+)-pentazocine, 60 min, 25 °C; for Selectivity Ki Ratio σ2/σ1: sigma2 Ki / sigma1 Ki
T1 sequence (Q8VD00 1-176): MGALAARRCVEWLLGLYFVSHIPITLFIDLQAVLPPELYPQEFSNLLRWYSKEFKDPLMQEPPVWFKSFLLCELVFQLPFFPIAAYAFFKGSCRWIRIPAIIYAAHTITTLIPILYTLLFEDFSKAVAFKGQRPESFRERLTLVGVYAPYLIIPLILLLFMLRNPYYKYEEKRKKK

[2] = target: T2, sigma1 receptor (Mus musculus, UniProt O55242); details: for Sigma1 nH (pseudo-Hill slope): 1.0 nM [3H](+)-pentazocine, 6 h, 37 °C
[3] = target: T2, sigma1 receptor; assay: biochemical
[4] = target: T2, sigma1 receptor; type: in vivo; details: for ED50: mouse, ip
[5] = tested on: sigma2 receptor; assay: [3H]DTG association kinetics and homologous; type: binding, mouse; details: 25 °C; 3.0 nM; 500 nM (+)-pentazocine

T2 sequence (O55242 whole entry): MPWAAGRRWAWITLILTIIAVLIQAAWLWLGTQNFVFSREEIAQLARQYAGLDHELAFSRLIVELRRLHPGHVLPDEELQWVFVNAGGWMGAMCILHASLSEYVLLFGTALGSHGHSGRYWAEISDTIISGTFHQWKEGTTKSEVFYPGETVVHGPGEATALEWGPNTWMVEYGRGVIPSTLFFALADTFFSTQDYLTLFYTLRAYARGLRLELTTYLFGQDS

Row | Compound | Sigma2 nH (pseudo-Hill slope) ([1]; mouse lung membranes) | Selectivity Ki Ratio σ2/σ1 ([1]; mouse lung membranes) | Sigma1 nH (pseudo-Hill slope) ([2]; mouse lung membranes) | Ki [3] | also measured
1 | C=CCN1CCC2(C)c3cc(O)ccc3CC1C2C (single isomer, unassigned; (+)) [(+)-NANM, (+)-N-allylnormetazocine] | 1.63 ± 0.35 | 1162 | 1.04 ± 0.10 | – | –
2 | C=CCN1CCC2(C)c3cc(O)ccc3CC1C2C (single isomer, unassigned; (-)) [(−)-NANM, (−)-N-allylnormetazocine] | 0.85 ± 0.09 | 2.0 | 1.48 ± 0.28 | – | –
3 | Cc1ccc2c(c1)C1CN(C)CCC1N2C(=O)CSc1nnnn1-c1ccc(Cl)cc1 (stereo not drawn) [AG-205, Z-2-[[1-(4-chlorophenyl)-1H-tetrazol-5-yl]thio]-1-(1,2,3,4,4a,9b-hexahydro-2,8-dimethyl-5H-pyrido[4,3-b]indol-5-yl)ethanone] | 1.06 ± 0.20 | 0.07 | 1.11 ± 0.12 | – | higher apparent affinity for sigma2 sites over sigma1 sites ([1]; mouse lung membranes, from Ki values): 14 fold; residual specific [3H](+)-pentazocine binding at highest concentration ([2]; 0.02 M, the highest concentration used): approximately 10%
4 | Cc1ccccc1NC(=N)Nc1ccccc1C [DTG, 1,3-di(2-tolyl)guanidine] | 0.90 ± 0.16 | – | 1.21 ± 0.09 | 0.0752 ± 0.00801 µM | –
5 | COc1ccc2c(c1)[C@]13CCCC[C@@H]1[C@H](C2)N(C)CC3 [Dextromethorphan, dextromethorphan hydrobromide] | 1.22 ± 0.12 | 58 | 0.86 ± 0.12 | 0.0717 ± 0.00656 µM | IC50 [1]: 4.51 ± 0.714 µM; Ki [1]: 4.2 ± 0.664 µM; sigma1 receptor occupancy across tissues at higher doses ([4]; 31.6 – 100 µmol / kg (12 – 37 mg / kg)): fully occupied; ED50 ([4]; read-out: ED50, inhibition of specific radioligand binding in heart): 1.2 µmol/kg; ED50 ([4]; read-out: ED50, inhibition of specific radioligand binding in lung): 1.2 µmol/kg; ED50 ([4]; read-out: ED50, inhibition of specific radioligand binding in spleen): 3.5 µmol/kg; ED50 ([4]; read-out: ED50 values, range across lung, heart, spleen and brain): 1.1 to 4.4 µmol/kg; ED50 ([4]; read-out: ED50 values, range across tissues): 0.4 to 1.6 mg/kg; ED50 ([4]; read-out: lung ED50): 0.4 mg/kg; Hill slope in the presence of phenytoin ([2]; phenytoin 1.0 mM in NaOH vehicle, mouse lung membranes): 1.2 ± 0.2; shift to higher apparent sigma1 affinity caused by phenytoin ([2]; phenytoin 1.0 mM, mouse lung membranes): 5 fold; Hill slope with vehicle only ([2]; vehicle only (50 µL, 0.15 M NaOH), mouse lung membranes): 1.3 ± 0.2
6 | CC(C(O)c1ccc(O)cc1)N1CCC(Cc2ccccc2)CC1 (stereo not drawn) [Ifenprodil, ifenprodil (+)-tartrate] | 0.88 ± 0.10 | 0.1 | 1.06 ± 0.11 | 0.0164 ± 0.00189 µM | IC50 [1]: 0.0024 ± 0.00027 µM; Ki [1]: 0.00218 ± 0.00024 µM
7 | Cc1ccccc1NC(=N)Nc1ccccc1C [[^3H]DTG, [^3H]1,3-di(2-tolyl)guanidine] | – | – | – | – | time to steady state of specific binding [5]: ≤ 2 min
8 | COc1ccc(CCN2CCN(C/C=C/I)CC2)cc1OC [[^125I]E-IA-DM-PE-PIPZE, E-N-1-(3´-iodoallyl)-N´-4-(3´´,4´´-dimethoxyphenethyl)-piperazine] | – | – | – | – | specific binding in vivo in brain ([4]; mouse brain, non-specific defined by BD1063): 85%; specific binding in vivo in heart ([4]; mouse heart, non-specific defined by BD1063): 50%; specific binding in vivo in lung ([4]; mouse lung, non-specific defined by BD1063 5.0 µmol / kg i.v.): 68%; specific binding in vivo in spleen ([4]; mouse spleen, non-specific defined by BD1063): 66%
9 | (−)-cocaine hydrochloride | 0.93 ± 0.09 | – | – | – | –
